Data on 24 molecules can be found in ChEMBL document CHEMBL4152284, “Novel tetrahydrocarbazole benzyl pyridine hybrids as potent and selective butryl cholinesterase inhibitors with neuroprotective and β-secretase inhibition activities” (Eur J Med Chem, 2018).

The term IC50 denotes the midpoint of a concentration-inhibition curve. The low end stands for inhibition by little substance, the high end for a need for much substance. The inhibition is how much of the control response was suppressed. What is called Ki is a dissociation constant, usually derived from enzyme kinetics or from competition with a known ligand.

The structures appear in SMILES notation.

The target in test [1] is T1, Cholinesterase (Equus caballus, UniProt P81908). Nature of the test: Inhibition of equine serum BChE using butyrylthiocholine iodide as substrate preincubated for 15 mins followed by substrate addition measured after 15 mins by Ellman's method. (In general: In Ellman's method for cholinesterases, released thiocholine reacts with DTNB.)
Test [2] addresses T2, Acetylcholinesterase (Electrophorus electricus, UniProt O42275). Put plainly: Inhibition of electric eel AChE using acetylthiocholine iodide as substrate preincubated for 15 mins followed by substrate addition measured after 15 mins by Ellman's method.
Test [3] in a line: Selectivity index, ratio of IC50 for electric eel AChE to IC50 for equine serum BChE.
Test [4] is described as follows: Selectivity index, ratio of IC50 for Torpedo californica AChE to IC50 for equine serum BChE.
Test [5] addresses T3, Acetylcholinesterase (Torpedo californica, UniProt P04058). Put plainly: Inhibition of Torpedo californica AChE using acetylthiocholine iodide as substrate preincubated for 10 mins followed by substrate addition measured for 5 mins by Ellman's method. Type of test: single protein, Tetronarce californica.
The target of test [6] is T1, Cholinesterase. Nature of the test: Inhibition of equine serum BChE using butyrylthiocholine iodide as substrate preincubated for 10 mins followed by substrate addition measured for 5 mins by Ellman's method.
For test [7], the target named is Beta-secretase 1 (Homo sapiens) (UniProt P56817). Nature of the test: Inhibition of recombinant human BACE1 (1 to 460 residues) expressed in baculovirus-infected insect cells at 50 uM using Rh-EVNLDAEFK-quencher as substrate measured after 90 mins by fluorescence assay relative to control.
Test [8] shares this target. Nature of the test: Inhibition of recombinant human BACE1 (1 to 460 residues) expressed in baculovirus-infected insect cells at 10 uM using Rh-EVNLDAEFK-quencher as substrate measured after 90 mins by fluorescence assay relative to control.
Test [9] addresses T1, Cholinesterase. Nature of the test: Mixed-type inhibition of equine serum BChE using varying levels of butyrylthiocholine iodide as substrate by Lineweaver-burk plot analysis.
The target in test [10] is Cholinesterase (Equus caballus) (UniProt P81908). Nature of the test: Potency index, ratio of donepezil IC50 to test compound IC50 for equine serum BChE.
In test [11] the target is Cholinesterase (Homo sapiens) (UniProt P06276). Put plainly: Inhibition of human BchE (unknown origin)-induced amyloid beta (1 to 42) aggregation at 10 uM after 48 hrs by thioflavin T fluorescence method relative to control.
Another test relates to PC-12. Nature of the test: Neuroprotective activity against H2O2-induced cell death in rat PC12 cells assessed as cell viability at 10 uM pretreated for 3 hrs followed by H2O2 addition and measured after 12 hrs by MTT assay relative to control. Type of test: functional. The settings on record: read-out: Activity.
Test [12] has as its target Amyloid-beta precursor protein (Homo sapiens) (UniProt P05067). Nature of the test: Inhibition of HFIP-pretreated amyloid beta (1 to 42) (unknown origin) self-induced aggregation at 10 uM after 48 hrs by thioflavin-T fluorescence assay relative to control.
Test [13] deals with T1, Cholinesterase. Nature of the test: Inhibition of equine serum BChE using butyrylthiocholine iodide as substrate preincubated for 10 mins followed by substrate addition measured for 6 mins by Ellman's method.
In test [14] the target is T2, Acetylcholinesterase. Put plainly: Inhibition of electric eel AChE using acetylthiocholine iodide as substrate preincubated for 10 mins followed by substrate addition measured for 6 mins by Ellman's method.
The target of test [15] is T3, Acetylcholinesterase. Put plainly: Inhibition of Torpedo californica AChE using acetylthiocholine iodide as substrate preincubated for 15 mins followed by substrate addition by Ellman's method. Set-up: species or system Tetronarce californica.
Test [16] concerns the target T1, Cholinesterase. Put plainly: Inhibition of equine serum BChE using butyrylthiocholine iodide as substrate preincubated for 15 mins followed by substrate addition by Ellman's method.

T1 sequence (P81908 whole entry): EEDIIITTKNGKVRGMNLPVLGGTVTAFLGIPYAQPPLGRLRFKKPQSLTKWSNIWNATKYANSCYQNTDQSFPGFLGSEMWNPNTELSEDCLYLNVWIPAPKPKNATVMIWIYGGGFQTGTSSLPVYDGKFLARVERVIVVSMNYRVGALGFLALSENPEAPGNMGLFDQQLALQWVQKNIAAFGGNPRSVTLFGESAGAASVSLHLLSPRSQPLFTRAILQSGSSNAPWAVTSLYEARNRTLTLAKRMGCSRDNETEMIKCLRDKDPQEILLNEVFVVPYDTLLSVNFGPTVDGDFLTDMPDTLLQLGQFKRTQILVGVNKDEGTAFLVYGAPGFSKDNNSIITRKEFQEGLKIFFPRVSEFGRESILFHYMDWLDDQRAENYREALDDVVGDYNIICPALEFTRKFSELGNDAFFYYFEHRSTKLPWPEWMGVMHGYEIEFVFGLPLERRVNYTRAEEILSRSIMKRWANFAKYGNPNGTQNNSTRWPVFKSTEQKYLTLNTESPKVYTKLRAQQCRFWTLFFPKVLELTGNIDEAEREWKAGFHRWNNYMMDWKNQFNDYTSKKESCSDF
T3 sequence (P04058 whole entry): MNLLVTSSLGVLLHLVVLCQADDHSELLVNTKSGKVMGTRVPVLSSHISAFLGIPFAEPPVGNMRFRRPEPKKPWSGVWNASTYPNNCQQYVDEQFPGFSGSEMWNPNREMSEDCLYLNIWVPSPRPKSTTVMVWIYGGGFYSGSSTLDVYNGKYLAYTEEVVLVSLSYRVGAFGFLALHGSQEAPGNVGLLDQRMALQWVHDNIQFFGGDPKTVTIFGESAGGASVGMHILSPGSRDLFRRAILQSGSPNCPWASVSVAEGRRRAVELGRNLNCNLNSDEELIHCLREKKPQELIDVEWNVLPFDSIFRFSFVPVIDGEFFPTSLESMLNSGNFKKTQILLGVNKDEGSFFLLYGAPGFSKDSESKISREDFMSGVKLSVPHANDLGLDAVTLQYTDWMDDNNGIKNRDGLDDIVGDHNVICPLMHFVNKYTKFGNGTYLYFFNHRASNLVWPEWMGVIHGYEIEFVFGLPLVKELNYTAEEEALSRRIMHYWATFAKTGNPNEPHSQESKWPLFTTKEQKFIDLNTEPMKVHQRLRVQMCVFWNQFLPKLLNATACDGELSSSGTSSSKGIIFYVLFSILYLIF
Chain of Beta-secretase 1 (Homo sapiens) (P56817 whole entry, the tested form may be a part): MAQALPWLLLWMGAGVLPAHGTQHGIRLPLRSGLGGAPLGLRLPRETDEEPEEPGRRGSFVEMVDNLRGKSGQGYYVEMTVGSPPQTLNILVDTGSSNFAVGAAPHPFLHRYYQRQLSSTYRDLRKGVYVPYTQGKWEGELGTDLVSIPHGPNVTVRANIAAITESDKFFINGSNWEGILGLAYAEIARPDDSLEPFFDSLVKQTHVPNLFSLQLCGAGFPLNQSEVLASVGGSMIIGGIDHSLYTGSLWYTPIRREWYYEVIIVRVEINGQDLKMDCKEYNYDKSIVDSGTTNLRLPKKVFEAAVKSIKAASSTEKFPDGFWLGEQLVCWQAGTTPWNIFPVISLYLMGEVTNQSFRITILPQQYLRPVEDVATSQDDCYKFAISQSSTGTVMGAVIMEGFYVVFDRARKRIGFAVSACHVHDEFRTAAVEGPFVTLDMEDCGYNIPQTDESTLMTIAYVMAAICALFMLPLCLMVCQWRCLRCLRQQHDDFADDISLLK
T2 sequence (O42275 whole entry): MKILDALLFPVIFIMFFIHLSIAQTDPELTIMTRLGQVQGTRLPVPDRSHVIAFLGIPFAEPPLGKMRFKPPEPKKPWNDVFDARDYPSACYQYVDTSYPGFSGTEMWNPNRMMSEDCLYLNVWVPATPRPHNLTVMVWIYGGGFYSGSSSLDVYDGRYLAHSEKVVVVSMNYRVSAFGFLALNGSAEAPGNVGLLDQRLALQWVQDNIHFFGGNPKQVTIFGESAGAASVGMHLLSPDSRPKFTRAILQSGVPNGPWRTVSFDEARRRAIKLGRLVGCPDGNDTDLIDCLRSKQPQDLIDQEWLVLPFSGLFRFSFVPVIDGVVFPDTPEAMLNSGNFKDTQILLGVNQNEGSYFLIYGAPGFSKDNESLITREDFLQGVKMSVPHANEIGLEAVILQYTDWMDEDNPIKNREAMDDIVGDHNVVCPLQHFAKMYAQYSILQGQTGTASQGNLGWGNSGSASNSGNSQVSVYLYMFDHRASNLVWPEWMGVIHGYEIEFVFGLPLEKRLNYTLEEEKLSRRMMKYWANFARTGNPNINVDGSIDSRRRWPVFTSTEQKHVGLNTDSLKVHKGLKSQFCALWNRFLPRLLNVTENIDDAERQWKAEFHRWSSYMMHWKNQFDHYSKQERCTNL
Chain of Cholinesterase (Equus caballus) (P81908 whole entry): as the sequence (P81908 whole entry) above
Chain of Amyloid-beta precursor protein (Homo sapiens) (P05067 whole entry): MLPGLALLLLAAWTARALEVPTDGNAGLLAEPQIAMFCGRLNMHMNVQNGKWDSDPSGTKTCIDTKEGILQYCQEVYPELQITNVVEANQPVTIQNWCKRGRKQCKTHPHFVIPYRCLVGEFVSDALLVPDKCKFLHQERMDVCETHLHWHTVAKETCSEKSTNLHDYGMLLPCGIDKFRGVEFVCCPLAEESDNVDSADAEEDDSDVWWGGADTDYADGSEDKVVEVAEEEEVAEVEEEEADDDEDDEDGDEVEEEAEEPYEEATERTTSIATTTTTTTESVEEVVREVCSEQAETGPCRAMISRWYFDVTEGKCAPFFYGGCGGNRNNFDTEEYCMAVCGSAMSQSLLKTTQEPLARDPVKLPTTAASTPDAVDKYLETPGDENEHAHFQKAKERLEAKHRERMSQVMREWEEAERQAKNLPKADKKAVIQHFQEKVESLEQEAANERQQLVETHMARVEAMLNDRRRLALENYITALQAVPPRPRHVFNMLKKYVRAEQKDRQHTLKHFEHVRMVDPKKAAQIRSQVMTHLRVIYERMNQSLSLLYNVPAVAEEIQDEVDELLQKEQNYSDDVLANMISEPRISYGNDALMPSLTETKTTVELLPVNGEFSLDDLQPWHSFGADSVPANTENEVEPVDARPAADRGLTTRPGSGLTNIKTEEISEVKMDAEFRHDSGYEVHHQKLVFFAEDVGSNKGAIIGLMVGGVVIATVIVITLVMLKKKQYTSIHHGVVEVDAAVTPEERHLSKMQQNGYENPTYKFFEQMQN
Chain of Cholinesterase (Homo sapiens) (P06276 whole entry): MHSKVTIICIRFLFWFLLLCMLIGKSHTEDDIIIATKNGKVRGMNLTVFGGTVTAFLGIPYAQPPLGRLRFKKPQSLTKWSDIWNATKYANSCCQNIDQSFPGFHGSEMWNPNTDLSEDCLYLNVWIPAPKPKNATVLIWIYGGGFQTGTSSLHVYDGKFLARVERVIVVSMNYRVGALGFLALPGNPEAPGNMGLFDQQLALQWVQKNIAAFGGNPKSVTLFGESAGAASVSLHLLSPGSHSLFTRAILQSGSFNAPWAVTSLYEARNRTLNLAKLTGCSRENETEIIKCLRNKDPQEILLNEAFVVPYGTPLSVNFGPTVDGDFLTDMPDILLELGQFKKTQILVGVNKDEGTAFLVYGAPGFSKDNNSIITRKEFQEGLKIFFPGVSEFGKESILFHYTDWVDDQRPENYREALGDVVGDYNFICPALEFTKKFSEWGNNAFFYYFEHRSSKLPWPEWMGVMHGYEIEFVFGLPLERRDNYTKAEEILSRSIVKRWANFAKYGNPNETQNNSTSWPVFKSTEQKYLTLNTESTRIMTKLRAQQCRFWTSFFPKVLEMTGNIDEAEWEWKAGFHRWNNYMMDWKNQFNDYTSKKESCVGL

For the molecule `O=C(NCc1cc[n+](Cc2cccc(F)c2)cc1)c1cc2ccccc2oc1=O`, the IC50 came out at 12.2 µM on Cholinesterase [1] and 10.1 µM against Acetylcholinesterase [2]. In addition, the Ratio IC50 in test [3] was found to be 0.83.

Regarding `Fc1cccc(C[n+]2cccc(Cn3c4c(c5ccccc53)CCCC4)c2)c1`, in test [4], the Ratio IC50 is 138. In addition, the figures for the IC50 on Acetylcholinesterase [5] and at Cholinesterase [6] were 77.1 µM and 0.56 µM, respectively.

Consider `Cc1ccc(C[n+]2ccc(Cn3c4c(c5ccccc53)CCCC4)cc2)cc1`, for which the Ratio IC50 in [4] is 20. Moreover, the half-maximal inhibitory concentration (IC50) against Acetylcholinesterase [5] turned out to be 14 µM; at Cholinesterase [6], 0.7 µM.

For `c1ccc(C[n+]2cccc(Cn3c4c(c5ccccc53)CCCC4)c2)cc1`, the Ratio IC50 in test [4] came to 126. In addition, the IC50 at Acetylcholinesterase [5] came out at 48.1 µM; at Cholinesterase [6] it was 0.38 µM.

For `Clc1cccc(C[n+]2ccc(Cn3c4c(c5ccccc53)CCCC4)cc2)c1`, the Ratio IC50 in test [4] came to 18.5. The IC50 at Acetylcholinesterase [5] was 4.8 µM; against Cholinesterase [6], 0.26 µM.

`Cc1cccc(C[n+]2ccc(Cn3c4c(c5ccccc53)CCCC4)cc2)c1`: in test [4], the Ratio IC50 was determined as 21.2. Also, the half-inhibitory concentration (IC50) came to 5.1 µM against Acetylcholinesterase [5] and 0.24 µM against Cholinesterase [6].

Turning to `Fc1ccccc1C[n+]1cccc(Cn2c3c(c4ccccc42)CCCC3)c1`, the Ratio IC50 in [4] is 133. Besides, the half-maximal inhibitory concentration (IC50) at Acetylcholinesterase [5] came out at 67.7 µM; against Cholinesterase [6], 0.51 µM.

Turning to `Cc1ccc(C[n+]2cccc(Cn3c4c(c5ccccc53)CCCC4)c2)cc1`, the inhibition worked out at 30% in test [7], 10% in test [8], 51.8% in test [11] and 55.7% in [12]. The Ratio IC50 came to 181 in test [4] and 3.97 in [10]. At Cholinesterase [9], this molecule registered a Ki of 0.09 µM. Besides, the IC50 came to 15.9 µM against Acetylcholinesterase [5] and 0.088 µM against Cholinesterase [6]. Also, in the test on PC-12, the viability at 10 µM is 65%.

For `O=C1Nc2ccccc2/C1=C\c1cc[n+](Cc2ccccc2Cl)cc1`, the IC50 against Cholinesterase [13] came out at 1370 µM; at Acetylcholinesterase [14] it was 0.0004 µM. Moreover, the Ratio IC50 in test [3] came out at 3110.

Regarding `Clc1ccccc1C[n+]1cccc(Cn2c3c(c4ccccc42)CCCC3)c1`, the Ratio IC50 in test [4] is 180. The IC50 at Acetylcholinesterase [5] amounted to 36.1 µM; against Cholinesterase [6] it was 0.2 µM.

Take `Fc1ccccc1C[n+]1ccc(Cn2c3c(c4ccccc42)CCCC3)cc1`: the Ratio IC50 in test [4] is 47.6. The IC50 against Acetylcholinesterase [5] is 30 µM; against Cholinesterase [6], 0.63 µM.

In the case of `Cc1ccccc1C[n+]1ccc(Cn2c3c(c4ccccc42)CCCC3)cc1`, in test [4], the Ratio IC50 came out at 21. For the same molecule, the IC50 against Acetylcholinesterase [5] was determined as 8.4 µM; on Cholinesterase [6], 0.4 µM.

Consider `Cc1cccc(C[n+]2cccc(Cn3c4c(c5ccccc53)CCCC4)c2)c1`, for which the Ratio IC50 in test [4] came to 153. Besides, the IC50 on Acetylcholinesterase [5] turned out to be 16.8 µM; on Cholinesterase [6], 0.11 µM.

Consider `Clc1ccc(C[n+]2cccc(Cn3c4c(c5ccccc53)CCCC4)c2)cc1`, for which the Ratio IC50 in test [4] was found to be 124. Also, the IC50 came to 27.3 µM against Acetylcholinesterase [5] and 0.22 µM at Cholinesterase [6].

As to `Clc1cccc(C[n+]2cccc(Cn3c4c(c5ccccc53)CCCC4)c2)c1`, in test [4], the Ratio IC50 amounted to 120. Also, the IC50 against Acetylcholinesterase [5] amounted to 30 µM; at Cholinesterase [6], 0.25 µM.

For `Fc1cccc(C[n+]2ccc(Cn3c4c(c5ccccc53)CCCC4)cc2)c1`, the Ratio IC50 in test [4] is 35. Moreover, the IC50 turned out to be 34.3 µM against Acetylcholinesterase [5] and 0.98 µM against Cholinesterase [6].

For `c1ccc(C[n+]2ccc(Cn3c4c(c5ccccc53)CCCC4)cc2)cc1`, the Ratio IC50 in test [4] came to 62.6. Further, the IC50 against Acetylcholinesterase [5] was 30 µM; against Cholinesterase [6], 0.48 µM.

As to `Fc1ccc(C[n+]2ccc(Cn3c4c(c5ccccc53)CCCC4)cc2)cc1`, the Ratio IC50 in test [4] turned out to be 44.9. Further, the IC50 on Acetylcholinesterase [5] amounted to 32.8 µM; against Cholinesterase [6] it was 0.73 µM.

With `O=C1c2ccccc2C(=O)N1Cc1cc[n+](Cc2ccccc2F)cc1`, in test [4], the Ratio IC50 was 11.3. In addition, the IC50 came out at 0.77 µM against Acetylcholinesterase [15] and 8.71 µM against Cholinesterase [16].

For `O=C1CCC(=O)N1Cc1cc[n+](Cc2cccc(F)c2)cc1`, the Ratio IC50 in test [4] turned out to be 6.34. For the same molecule, the IC50 against Acetylcholinesterase [15] turned out to be 7.19 µM; on Cholinesterase [16] it was 45.6 µM.

With `Fc1ccc(C[n+]2cccc(Cn3c4c(c5ccccc53)CCCC4)c2)cc1`, in test [4], the Ratio IC50 came out at 138. Also, the IC50 at Acetylcholinesterase [5] was 71.7 µM; against Cholinesterase [6], 0.52 µM.

For the molecule `Clc1ccc(C[n+]2ccc(Cn3c4c(c5ccccc53)CCCC4)cc2)cc1`, in [4], the Ratio IC50 turned out to be 12.2. Moreover, the IC50 against Acetylcholinesterase [5] was 25.6 µM; against Cholinesterase [6] it was 2.1 µM.

Regarding `Clc1ccccc1C[n+]1ccc(Cn2c3c(c4ccccc42)CCCC3)cc1`, the Ratio IC50 in [4] amounted to 22.4. The IC50 against Acetylcholinesterase [5] stood at 6.5 µM; against Cholinesterase [6] it was 0.29 µM.

`Cc1ccccc1C[n+]1cccc(Cn2c3c(c4ccccc42)CCCC3)c1`: the Ratio IC50 in test [4] amounted to 124. Moreover, the IC50 against Acetylcholinesterase [5] stood at 47 µM; against Cholinesterase [6], 0.38 µM.
